{
  "source": "patent US9034793B2",
  "about": "“Use of ribose to enhance plant growth” (Bioenergy, Inc., priority 2002, dated 2015)",
  "key": {"cut flower": {"system": "cut flower", "conditions": "storage solution containing the compound; cited from earlier work"}, "[1]": {"system": "plants grown from seed (5 seeds per plot)", "test": "Plant feeding with ribose for growth (Table 1)", "type": "in vivo, Hosta (H. plantaginea grandiflora)", "text": "(§1) Hosta (H. plantaginea grandiflora) plants were transplanted. The protocol was designed such that half of the plants were supplied with water alone and half of the plants received a ribose based solution, in which powdered D-ribose was mixed in water. All plants were transplanted at the same level in the soil and in like soil. All plants were watered at the same times of day, mid-morning and at dusk. Each plant received the same amount of water/watering (½ liter water at each watering). Results of plant growth data following transplantation are graphically depicted in FIGS. 1 and 2. [table]"}, "beans (B)": {"system": "beans (B)", "test": "Transplants in garden, growth and hardening after transplantation: beans", "type": "in vivo, bean", "text": "as §1"}, "kohlrabi (K)": {"system": "kohlrabi (K)", "test": "Transplants in garden, growth and hardening after transplantation: kohlrabi", "type": "in vivo", "text": "as §1"}, "bean seeds [2]": {"system": "bean seeds", "test": "Root growth assessment (Example 3)", "type": "in vivo", "conditions": "Week 1 following seed implantation", "text": "Identical sized pots, containing the same consistency of soil media, were used in assessing root growth. Bean seeds of similar size were chosen. One seed was planted in each pot. The depth in the soil for each seed that was planted was the same. Paired pots (total of 3 pairs, 6 pots), each containing one bean seed, were used. One pair of pots received 2 teaspoons of water every other day (Group A). The second pair of pots received a low Ribose solution (1 teaspoon of D-ribose in 16 oz of water), each pot received 2 teaspoons of this low dose of Ribose every other day (Group B). The final pair of pots received a higher dose of Ribose (1 teaspoon of D-ribose in 4 oz of water), each pot received 2 teaspoons of this higher dose of Ribose every other day (Group C). In each pair of pots, roots were examined at week 1 and 2, by removing the roots of one pot only in each group at the designed test time point with soil emersion in a bucket of water. At week 2 all remaining pots had shoots emerging from the top soil. The roots were weighed and measured for length. […] This discrepancy expanded when the roots were analyzed at 2 weeks. […] The weight of the roots treated with high dose Ribose were appreciably less in weight than both the water and low dose Ribose treated groups."}, "bean seeds [3]": {"system": "bean seeds", "test": "Fertilization with ribose combined with nitrogen, phosphorus, potassium", "type": "in vivo", "conditions": "ribose combined with the fertilizers nitrogen, phosphorus, and potassium", "protocol": "D-ribose plus nitrogen, nitrogen alone, or placebo was administered to bean seeds and measurements of growth and yield was made as in Example 2. D-ribose plus phosphorus, phosphorus alone, or placebo was administered to bean seeds and measurements of growth and yield was made as in Example 2. D-ribose plus potassium, potassium alone, or placebo was administered to bean seeds and measurements of growth and yield was made as in Example 2. D-ribose plus the combination, the combination alone, or placebo was administered to bean seeds and measurements of growth and yield was made as in Example 2."}, "[4]": {"conditions": "29-Sep, first measure after transplant"}},
  "note": "“And” between values parts separate entries of the source, which are not always exact repeats. Equal entries are not always repeated.",
  "data": [
    {"smiles": "CCSC[C@@H](O)[C@@H](O)[C@@H](O)C=O", "note": "[5-deoxy-5-ethylthio-D-ribose]", "values": [
      {"measurement": "Bloom life of a cut flower", "setting": "cut flower", "result": "extend bloom life"}
    ]},
    {"smiles": "O=C[C@H](O)[C@H](O)[C@H](O)CO", "note": "[R4, ribose]", "values": [
      {"measurement": "Plant measures, Mean", "setting": "[1]; 23 June, 5 seeds per plot", "result": 8.45, "unit": "inches"},
      {"measurement": "Unsprouted", "setting": "[1]; 23 June, of 5 seeds per plot", "result": 0},
      {"measurement": "Plant measures, measured to the Y, single plants", "setting": "[1]; 23 June, planted 4 June, 2 tablespoons every other day (3x per week)", "result": "6.5 inches and 8 inches and 8.25 inches and 9.5 inches and 10 inches"},
      {"measurement": "#Plants/blossom", "setting": "[1]; Measured 8 July", "result": 5},
      {"measurement": "Plant measures, Mean", "setting": "[1]; Measured 8 July", "result": 11.1, "unit": "inches"},
      {"measurement": "Plant measures, measured to the Y, single plants", "setting": "[1]; Measured 8 July", "result": "8.75 inches and 10 inches and 10.5 inches and 11.75 inches and 12 inches"},
      {"measurement": "Bean measure to the Y", "setting": "beans (B); 1-Nov, after transplant", "result": "10 cm and 13 cm"},
      {"measurement": "Bean overall height", "setting": "beans (B); 1-Nov, after transplant", "result": "27 cm and 30 cm"},
      {"measurement": "Bean measure to the Y", "setting": "beans (B); 9-Sep, before moving", "result": "6 cm and 8 cm"},
      {"measurement": "Bean overall height", "setting": "beans (B); 9-Sep, before moving", "result": "21 cm and 22 cm"},
      {"measurement": "Bean measure to the Y", "setting": "beans (B); 19-Oct, after transplant", "result": "8.75 cm and 12 cm"},
      {"measurement": "Bean overall height", "setting": "beans (B); 19-Oct, after transplant", "result": "26 cm and 28 cm"},
      {"measurement": "Bean measure to the Y", "setting": "beans (B); [4]", "result": "7.5 cm and 10.5 cm"},
      {"measurement": "Bean overall height", "setting": "beans (B); [4]", "result": "24 cm and 26 cm"},
      {"measurement": "Kohlrabi plant measure", "setting": "kohlrabi (K); 1-Nov, after transplant", "result": "16.5 and 19 and 22 and 21 and 15"},
      {"measurement": "Kohlrabi plant measure", "setting": "kohlrabi (K); 9-Sep, before moving", "result": "12 and 13 and 17 and 11"},
      {"measurement": "Kohlrabi plant measure", "setting": "kohlrabi (K); 19-Oct, after transplant", "result": "15 and 18 and 19.5 and 20 and 14.5"},
      {"measurement": "Kohlrabi plant measure", "setting": "kohlrabi (K); [4]", "result": "14 and 16 and 19 and 19.5 and 13"}
    ]},
    {"smiles": "O=C[C@H](O)[C@H](O)[C@H](O)CO", "note": "[Ribose, D-ribose]", "values": [
      {"measurement": "Root Length", "setting": "bean seeds [2]", "result": "slightly shorter in length"},
      {"measurement": "Root Weight", "setting": "bean seeds [2]", "result": "heavier"},
      {"measurement": "Improvement over solutions of ribose alone", "setting": "bean seeds [3]", "result": "slight incremental improvements"}
    ]}
  ]
}
